Patent publication US20190284192A1, “NITROGENOUS MACROCYCLIC COMPOUND, PREPARATION METHOD THEREFOR, PHARMACEUTICAL COMPOSITION AND APPLICATION THEREOF” (LUOXIN PHARMACEUTICAL (SHANGHAI) CO., LTD., priority 2016, published 2019)
Read-outs that look alike come from different tables or passages of the source.

Columns and labels:
BRD4 (BD1) = target: T1, BRD4 (BD1) (Homo sapiens, UniProt O60885); test: BRD4 (BD1) bromodomain binding, HTRF; conditions: 2 h incubation at r.t.
T1 construct: Each member comprises two tandem bromodomains (BD1 and BD2) for recognizing the acetylated lysine residues

BRD4 (BD2) = target: T2, BRD4 (BD2) (Homo sapiens, UniProt O60885); test: BRD4 (BD2) bromodomain binding, HTRF; conditions: 2 h incubation at r.t.
T2 construct: Each member comprises two tandem bromodomains (BD1 and BD2) for recognizing the acetylated lysine residues

MV-4-11 cells = test: Inhibitory effect on MV-4-11 cells (CellTiter-Glo); format: cell-based; conditions: Homo sapiens, MV4-11; 72 hours, CellTiter-Glo; read-out: MV-4-11
Experimental: The 1st Day: Seed the Cells on the Plate
1. The cells were verified that they were in good conditions by observation under microscope;
2. The cells were transferred to a 15 mL centrifuge tube, after centrifuged at 1000 rpm for 5 min, the supernatant was discarded;
3. The complete medium (IMDM+10% FBS) was added, then blown and patted into single cell suspension, counted by Vi-cell cytometer, the cell suspension was adjusted to desired cell density by the complete medium.
4. The cells were inoculated into a 96 well plate, the cell number was 15000/well at 100 μL per well, 100 μL complete medium was added into the black control.
5. 37° C., 5% CO2 culture overnight.
The 2nd Day: Addition of the Drugs
1. 1000× Compound Plate Preparation
1.1. The test compound was prepared into 10 mM working solution by using DMSO. Then the STS was prepared into 2 mM working solution by using DMSO.
1.2. In the round bottom 96 wells plate, the column 2 of row A to H was added into 60 μL 10 mM test compound (or STS) working solution, columns 3-11 were added into 40 μL DMSO, 20 μL drug solution was pipetted from the column 2 to the column 3, blown and patted for a homogeneous mixture; then 20 μL solution was pipetted from the column 3 to the column 4, blown and patted for a homogeneous mixture, sequently, the drug was diluted by 3 times, 10 concentrations in total. The columns 1 and 12 were supplemented with 40 μL of DMSO.
2. Intermediate plate areparation
A sterile V-bottom 96 deep well plate was used and in each well, 495 μL FBS-free PRMI 1640 medium was added, then 5 μL of the diluted compound (or DMSO) in the 1000× compound plate was pipetted into corresponding position of the V-bottom 96 well plate, blown and patted evenly.
3.1. The cell plate was taken out from the incubator and was observed under microscope. The diluted compound or DMSO in the intermediate plate was added into the cell plate, 11 μL each well.
3.2. The cell was continued to be cultured at 37° C., 5% CO2 for 72 hours.
The 5th Day: CellTiter-Glo Detection of the Cell Activity
1. The CellTiter-Glo buffer and the reaction substrate were taken out from the refrigerator, after balanced to r.t., the buffer was poured into a brown bottle containing the substrate, the bottle was upside down to have the substrate powder sufficientaly dissolved.
2. The cell was observed under microscope; the cell plate was balanced to r.t.
3. The prepared CellTiter-Glo was added into the 96 well plate, at 100 μL/well.
4. The cell plate was placed on a shaker for 10 min, followed by standing at r.t. for 10 min.
5. A white seal film was attached to the bottom of the well plate, and the chemiluminescence signal of each well was detected by the Enspire microplate detector.
6. XLfit was used for data processing. Inhibition rate %=(d−c)/(d−b)×100, while d is the signal value of the DMSO treated group, c is the signal value of the compound treated group, b is signal value of the blank control that only containing medium and DMSO without cells. The data was fitted using the f(x)205[fit=(A+((B−A)/(1+((C/x)^∧D))))] equation in the XLfit software.

[1] = Metabolic stability in human liver microsomes; format: in vitro ADME; conditions: human liver microsomes 0.5 mg/mL, NADPH, 37° C.; for CLint scaled at 1 µM: pH 7.4, read-out: HLM_CLint
Experimental: (§1) Determinations of the metabolic stability of the compound from the above embodiments, the detailed operation steps are as followed:
(§2) 1. Preparation of buffer C:
(§3) Buffer A: 1.0 L of 0.1 M potassium dihydrogen phosphate buffer (containing 1.0 mM EDTA);
(§4) Buffer B: 1.0 L of 0.1 M dipotassium hydrogen phosphate buffer (containing 1.0 mM EDTA);
(§5) Buffer C: 500 mL Buffer B was titrated with Buffer A to pH 7.4.
(§6) 2. 10 mM stock solution preparation:
(§7) 10 mM test compound: A certain amount of the test compound was weighed and dissolved in DMSO.
(§8) 10 mM control: 5.455 mg of ketanserin dissolved in 1 mL DMSO.
(§9) 3. Preparation of the drug solution:
(§10) 500 μM solution: 5 μL of 10 mM stock solution (see step 2) was added into 95 μL ACN;
(§11) 1.5 μM dosing solution (dissolved in liver microsome solution):
(§12) 18.75 μL of 20 mg/mL liver microsomes was added into 479.75 μL of Buffer C, then 1.5 μL of 500 μM solution was added and mixed gently by shaking.
(§13) 4. Preparation of 6 mM NADPH solution:
(§14) 15 mg NADPH was weighted, then added into 3 mL of buffer C to prepare a 6 mM NADPH solution.
(§15) 5. 30 µL of 1.5 μM dosing solution (see step 3) was added into the wells of the 96-well plate set at different time points (0 minutes, 5 minutes, 15 minutes, 30 minutes, 45 minutes), number of dulplicate sample is 2.
(§16) 6. Preparation of a 0 minutes sample: 135 μL ACN (with internal standard) was added to the 0 minutes well, followed by 15 µL of 6 mM NADPH solution.
(§17) 7. The 96-well plate containing 1.5 μM dosing solution and NADPH solution were preheated in a 37° C. water bath for 5 minutes.
(§18) 8. The 15 µL of 6 mM NADPH solution preheated was added into the wells set to 5 minutes, 15 minutes, 30 minutes, 45 minutes, then the reaction was initiated and started counting the time.
(§19) 10. The sample was vortexed for 10 min, and then centrifuged for 15 minutes on a centrifuge (Thermo Multifuge×3R) using 5594×g.
(§20) 11. 50 μL of the supernatant was taken from the centrifuged sample, transferred to a 96-well sample plate to which 100 μL of ultrapure water had already been added, mixed, and finally sent to LC-MS/MS for analysis.
(§21) Half time (T1/2)=0.693/K (K is the rate constant obtained by linear regression of the logarithm of the concentration as vertical coordinates and the culturing time as the abscissa)
(§22) 2. According to the equation formula bellow, Excel was used to plot the compound content versus reaction time, as well as half life calculation (min)
(§23) Y=(Y0−Plateau)×e^(−K*X)+Plateau
(§24) Y0 represents the compound content at 0 minutes; Y represents the compound content; X represents the time point; K represents degration rate constant of the compound; Plateau represents the lowest possible content of the compound (defined herein as 0).

[2] = Metabolic stability in mouse liver microsomes; format: in vitro ADME; conditions: mouse liver microsomes 0.5 mg/mL, NADPH, 37° C.; for CLint scaled at 1 µM: pH 7.4, read-out: MLM_CLint
Experimental: as §1, §2, §3, §4, §5, §6, §7, §8, §9, §10, §11, §12, §13, §14, §15, §16, §17, §18, §19, §20, §21, §22, §23, §24

[3] = Cassette pharmacokinetic study, intravenous or oral administration; format: in vivo, female Balb/c nude mice; design: Cmax: unit not given here; conditions: for F: PO 2 mg/kg vs IV 0.5 mg/kg; for Cmax / AUC(0-inf) / AUC(0-t) / MRT inf / clearance / half-life / Vd / Tmax: N = 3, cassette; for AUC(0-inf) / AUC(0-t) / MRT inf / clearance / half-life / Vd / Tmax: female, Balb/c nude, mouse, whole blood; for half-life: read-out: Terminal t1/2 (converted); for Vd: read-out: Vss
Experimental: Determinations of the pharmacokinetic parameters of ABBV-075 (standard control), 4009, 4018, 4026 and 4031 in femal Balb/c nude mice after intravenous or oral administration.
Detailed Experimental Steps:
6 female Balb/c nude mice weighing 18-20 g were divided into two groups (3/group), after fixation, the intravenous group: 0.5 mg/kg (5 mL/kg) injected by caudal vein (N=3); the oral group: 2 mg/kg (10 mL/kg) by intragastic administration (N=3). Approximately 20 μL of blood was drawn behind the eyeball at the sampling point and placed in EDTA-2K tube. The sample was immediately diluted with 40 μL of double distilled water and vortexed until well mixed. Blood samples were stored at approximately −70° C. and submitted to the BA group for analysis (LC/MS). 30 μL of blood sample was added with 200 μL of H2O and 30 μL of IS dexamethasone, 200 ng/mL), layered by LLE, and 1 mL of MTBW was added as an organic extraction solvent. The mixture was vortexed for 10 min and centrifuged at 10,000 rpm for 5 min. 850 μL of the supernatant was evaporated under nitrogen until desiccated. The desiccated extract was re-mixed with 150 μL of 50% methanol, vortexed for 2 min, and then analyzed by injecting 5 μL of the supernatant into LC-MS/MS.
2. Intravenous/oral administration formula: 5% DMSO, 95% (10% HP-3-CD in water)
3. PK calculation parameter used non-compartment model, WinNonlin 6.4 software calculation

Row | Compound | IC50 (BRD4 (BD1)) | IC50 (BRD4 (BD2)) | IC50 (MV-4-11 cells) | HLM_T1/2 [1] | CLint scaled at 1 µM [1] | MLM_T1/2 [2] | CLint scaled at 1 µM [2] | F [3] | Cmax ([3]; PO 2 mg/kg) | AUC(0-inf) ([3]; IV 0.5 mg/kg) | AUC(0-t) ([3]; IV 0.5 mg/kg) | MRT inf ([3]; IV 0.5 mg/kg) | clearance ([3]; IV 0.5 mg/kg) | half-life ([3]; IV 0.5 mg/kg) | Vd ([3]; IV 0.5 mg/kg) | AUC(0-inf) ([3]; PO 2 mg/kg) | AUC(0-t) ([3]; PO 2 mg/kg) | Tmax ([3]; PO 2 mg/kg) | half-life ([3]; PO 2 mg/kg)
1 | CCS(=O)(=O)Cc1ccc2c(c1)-c1cn(C)c(=O)cc1CN=C2c1ccc(F)cc1F [Compound 4012, 7-(2,4-difluorophenyl)-2-methyl-10-(ethylsulfonemethyl)-2H-benzo[c]pyrido[3,4-e]azepin-3(5H)-ketone] | 4 nM | 2 nM | 80 nM | 1473.23 min | 1.18 mL/min/kg | 1568.22 min | 3.48 mL/min/kg | – | – | – | – | – | – | – | – | – | – | – | –
2 | CCNC(=O)C[C@@H]1N=C(c2ccc(Cl)cc2)c2ccccc2-c2cn(C)c(=O)cc21 [Compound 4016, (S)-2-(7-(4-chlorophenyl)-2-methyl-3-oxo-3,5-dihydro-2H-benzo[c]pyrido[3,4-e]azepin-5-yl)-N-ethylacetamide] | 3 nM | 1 nM | 16 nM | 34.22 min | 50.8 mL/min/kg | 21.37 min | 255 mL/min/kg | – | – | – | – | – | – | – | – | – | – | – | –
3 | Cn1cc2c(cc1=O)[C@H](CC(N)=O)N=C(c1ccc(Cl)cc1)c1ccccc1-2 [Compound 4017, (S)-2-(7-(4-chlorophenyl)-2-methyl-3-oxo-3,5-dihydro-2H-benzo[c]pyrido[3,4-e]azepin-5-yl)acetamide] | 4 nM | 2 nM | 10 nM | 854.27 min | 2.03 mL/min/kg | 215.28 min | 25.4 mL/min/kg | – | – | – | – | – | – | – | – | – | – | – | –
4 | CCS(=O)(=O)Nc1ccc2c(c1)-c1cn(C)c(=O)cc1CN=C2c1ccc(F)cc1 [Compound 4018, N-(7-(4-fluorophenyl)-2-methyl-3-oxo-3,5-dihydro-2H-benzo[c]pyrido[3,4-e]azapin-10-yl)ethanesulfonamide] | 3 nM | 2 nM | 5 nM | 1043.26 min | 1.67 mL/min/kg | 352.12 min | 15.5 mL/min/kg | 12.2% | 41.9 | 201 ng·h/mL | 199 ng·h/mL | 0.59 h | 41.8 mL/min/kg | 0.685 h | 1.51 L/kg | 98.1 ng·h/mL | 89.7 ng·h/mL | 0.667 h | 2.18 h
5 | CCNC(=O)C[C@@H]1N=C(c2ccc(F)cc2)c2cc(OC)ccc2-c2cn(C)c(=O)cc21 [Compound 4023, (S)—N-ethyl-2-(7-(4-fluorophenyl)-9-methoxy-2-methyl-3-oxo-3,5-dihydro-2H-benzo[c]pyrido[3,4-e]azepin-5-yl)acetamide] | 3 nM | 1 nM | 9 nM | 121.24 min | 14.3 mL/min/kg | 75.05 min | 72.7 mL/min/kg | – | – | – | – | – | – | – | – | – | – | – | –
6 | CCS(=O)(=O)Nc1cc2c(cc1Cl)C(c1ccc(F)cc1)=NCc1cc(=O)n(C)cc1-2 [Compound 4031, N-(9-chloro-7-(4-flurophenyl)-2-methyl-3-oxo-3,5-dihydro-2H-benzo[c]pyrido[3,4-e]azepin-10-yl)ethylsulfonamide] | 2 nM | 1 nM | 3 nM | ∞ | – | ∞ | – | 108% | 1009 | 771 ng·h/mL | 729 ng·h/mL | 3.5 h | 10.9 mL/min/kg | 2.72 h | 2.34 L/kg | 3330 ng·h/mL | 3300 ng·h/mL | 0.5 h | 3.84 h
7 | CC[C@@H]1N=C(c2ccc(F)cc2)c2ccc(CS(=O)(=O)CC)cc2-c2cn(C)c(=O)cc21 [Compound 4038, (S)-5-ethyl-10-((ethylsulfonyl)methyl)-7-(4-flurophenyl)-2-methyl-2,5-dihydro-3H-benzo[c]pyrido[3,4-e]azepin-3-ketone] | 2 nM | 1 nM | 4 nM | ∞ | – | ∞ | – | – | – | – | – | – | – | – | – | – | – | – | –
8 | C[C@@H]1N=C(c2ccc(F)cc2)c2ccc(CS(N)(=O)=O)cc2-c2cn(C)c(=O)cc21 [Compound 4071, (S)-(7-(4-flurophenyl)-2,5-dimethyl-3-oxo-3,5-dihydro-2H-benzo[c]pyrido[3,4-e]azepin-10-yl)methane sulfamide] | 2 nM | 1 nM | 10 nM | ∞ | – | ∞ | – | – | – | – | – | – | – | – | – | – | – | – | –
9 | CNS(=O)(=O)Cc1ccc2c(c1)-c1cn(C)c(=O)cc1[C@H](C)N=C2c1ccc(F)cc1 [Compound 4072, (S)-1-(7-(4-flurophenyl)-2,5-dimethyl-3-oxo-3,5-dihydro-2H-benzo[c]pyrido[3,4-e]azepin-10-yl)-N-methylmethane sulfamide] | 1 nM | 1 nM | 6 nM | ∞ | – | 372.45 min | 14.7 mL/min/kg | – | – | – | – | – | – | – | – | – | – | – | –
10 | C[C@@H]1N=C(c2ccc(F)cc2)c2ccc(CS(=O)(=O)N(C)C)cc2-c2cn(C)c(=O)cc21 [Compound 4073, (S)-1-(7-(4-flurophenyl)-2,5-dimethyl-3-oxo-3,5-dihydro-2H-benzo[c]pyrido[3,4-e]azepin-10-yl)-N,N-dimethylmethane sulfamide] | 1 nM | 1 nM | 2 nM | 139.87 min | 12.4 mL/min/kg | 156.12 min | 35 mL/min/kg | – | – | – | – | – | – | – | – | – | – | – | –
11 | CCS(=O)(=O)Cc1ccc2c(c1)-c1cn(C)c(=O)cc1N(C)N=C2c1ccc(F)cc1 [Compound 4078, 10-((ethylsulfonyl)methyl)-7-(4-flurophenyl)-2,5-dimethyl-2,5-dihydro-3H-benzo[e]pyrido[4,3-c][1,2]diazepin-3-ketone] | 5 nM | 2 nM | 14 nM | 727.04 min | 2.39 mL/min/kg | 195.55 min | 27.9 mL/min/kg | – | – | – | – | – | – | – | – | – | – | – | –
12 | CCS(=O)(=O)Cc1ccc2c(c1)-c1nn(C)c(=O)cc1C(C)N=C2c1ccc(F)cc1 (stereo not shown) [Compound 4081, 10-((Ethylsulfonyl)methyl)-7-(4-flurophenyl)-2,5-dimethyl-2,5-dihydro-3H-benzo[c]pyridazino[3,4-e]azepin-3-ketone] | 6 nM | 3 nM | 30 nM | 2952.57 min | 0.59 mL/min/kg | ∞ | – | – | – | – | – | – | – | – | – | – | – | – | –
